Assay results: patent publication US9499614B2, “Methods for modulating protein glycosylation profiles of recombinant protein therapeutics using monosaccharides and oligosaccharides” (AbbVie, Inc., priority 2013, dated 2016)
“Also recorded” adds a separate entry of the source.

Experiments:
Format in all cases: cell-based, Chinese Hamster
Cell Line 1 [1] = test: Shake flask fedbatch culture of Cell Line 1 (Antibody 1), cell culture performance (Example 2); settings: for Antibody 1 harvest titer: 1, 10, 30, 50, 70 mM vs control
Experimental: Two recombinant Chinese Hamster Ovary (CHO) cell lines expressing two different recombinant glycoproteins were evaluated in two different cultures vessels (shaker flasks and 3 L laboratory scale bioreactors). Cell Line 1 expressed Antibody 1, Cell Line 2 expressed Dual Variable Domain Immunoglobulin 1 (DVD 1) and Cell Line 3 expressed Antibody 2. Antibodies 1 and 2 are IgG1 proteins, and DVD 1 is an immunoglobulin with two variable domains as documented previously (Wu C. et al., (2007) Nat. Biotechnol 25(11):1290-1297). All cell lines were of CHO DUX-B11 origin based on a dhfr (dihydrofolate reductase) expression system. All cell lines were cultured in the same chemically defined basal media. Cell lines 1 and 2 were fed with the same chemically-defined feed media, but Cell Line 1 was fed media that was formulated at a 50% higher concentration. Each of the respective media were supplemented with either sucrose or tagatose to evaluate their potential impact on the resulting N-glycan oligosaccharide profile. All sugars were purchased from Sigma-Aldrich (St. Louis, Mo.). In preparation of the cultures, the cell lines were serially expanded through separate seed train inoculums to generate enough cells for inoculation. […] [table] Viable cell density (VCD) and cell viability values were measured through trypan blue exclusion via Cedex automated cell counters (Roche Applied Science, Indianapolis, Ind.), glucose and lactate values were measured with a ABL-805 (Radiometer Medical, Denmark) blood gas analyzer. Offline pH, dissolved oxygen (DO), and pCO2 measurements were performed with an ABL-805 (Radiometer Medical, Denmark) blood gas analyzer. Osmolality was measured on a Multi-Osmette 2430 osmometer (Precision Systems, Natick, Mass.). Antibody titers were measured from crude cell culture harvests on a Poros A™ (Life Technologies, Carlsbad, Calif.) affinity column using an Agilent (Santa Clara, Calif.) 1200 Series HPLC, or equivalent, operating with a low pH, step elution gradient with detection at 280 nm. Absolute concentrations were assigned with respect to reference standard calibration curves. Experimental results are expressed as mean±SD for those results generated from at least three independent cultures. Experimental results are expressed as the measured value for those results generated from less than three independent cultures. Results were evaluated for statistical significance through 2-sided t-tests, with a requirement of p<0.05 relative to the unsupplemented control conditions. Cell Line 1 was cultured in shake flasks in fedbatch mode after an abbreviated seed train. Sucrose and tagatose were supplemented into chemically-defined basal and feed media at concentrations of 1, 10, 30, 50, and 70 mM, and compared to unsupplemented control conditions. The viable cell density (VCD), viability, and harvest titer results are shown in FIGS. 13A-13C for the sucrose supplemented cultures and FIGS. 14A-14C for the tagatose supplemented cultures.

Cell Line 1 [2] = test: 3 L laboratory-scale bioreactor culture of Cell Line 1, cell culture performance; settings: for Osmolality / cell viability / lactate / pCO2 / viable cell density: 50 mM supplement vs control; for final harvest titer ratio: relative to unsupplemented control
Experimental: (§1) Two recombinant Chinese Hamster Ovary (CHO) cell lines expressing two different humanized monoclonal antibodies (Antibody 1, Antibody 2) were evaluated in two different culture vessels (shaker flasks and laboratory scale bioreactors). Both cell lines were of CHO DUX-B11 origin based on a dhfr (dihydrofolate reductase) expression system. Both cell lines were cultured in the same chemically defined basal media (CDBM), with Cell Line 1 also utilizing a chemically-defined feed media (CDFM). Each of the respective media were supplemented with selected monosaccharides and oligosaccharides to evaluate their potential impact on the resulting N-glycan oligosaccharide profile. In preparing the cultures, the cell lines were serially expanded through separate seed train inoculums to generate enough cells for inoculation.
(§2) Viable cell density (VCD) and cell viability values were measured through trypan blue exclusion via Cedex automated cell counters (Roche Applied Science, Indianapolis, Ind.), glucose and lactate values were measured with a ABL-805 (Radiometer Medical, Denmark) blood gas analyzer. Offline pH, dissolved oxygen (DO), and pCO2 measurements were performed with a ABL-805 (Radiometer Medical, Denmark) blood gas analyzer. Osmolality was measured on a Multi-Osmette 2430 osmometer (Precision Systems, Natick, Mass.).
(§3) Antibody titers were measured from crude cell culture harvests on a Poros A™ (Life Technologies, Carlsbad, Calif.) affinity column using an Agilent (Santa Clara, Calif.) 1200 Series HPLC, or equivalent, operating with a low pH, step elution gradient with detection at 280 nm. Absolute concentrations were assigned with respect to reference standard calibration curves.
3 L scale-down model bioreactors were utilized to verify the impact of select sugars on the resulting protein glycosylation profiles. The concentration of the sucrose and tagatose was chosen to minimize any potential adverse impact on cell growth and productivity, but still facilitate a measurable modulation of the glycosylation profile. Cell culture process performance indicators were monitored and measured throughout the respective cultures. Viable cell density, cell viability, lactate, pCO2, osmolality, harvest titer, and harvest N-glycan oligosaccharide data were measured and reported.
Two recombinant Chinese Hamster Ovary (CHO) cell lines expressing two different recombinant glycoproteins were evaluated in two different cultures vessels (shaker flasks and 3 L laboratory scale bioreactors). Cell Line 1 expressed Antibody 1, Cell Line 2 expressed Dual Variable Domain Immunoglobulin 1 (DVD 1) and Cell Line 3 expressed Antibody 2. Antibodies 1 and 2 are IgG1 proteins, and DVD 1 is an immunoglobulin with two variable domains as documented previously (Wu C. et al., (2007) Nat. Biotechnol 25(11):1290-1297). All cell lines were of CHO DUX-B11 origin based on a dhfr (dihydrofolate reductase) expression system. All cell lines were cultured in the same chemically defined basal media. Cell lines 1 and 2 were fed with the same chemically-defined feed media, but Cell Line 1 was fed media that was formulated at a 50% higher concentration. Each of the respective media were supplemented with either sucrose or tagatose to evaluate their potential impact on the resulting N-glycan oligosaccharide profile. All sugars were purchased from Sigma-Aldrich (St. Louis, Mo.). In preparation of the cultures, the cell lines were serially expanded through separate seed train inoculums to generate enough cells for inoculation.
Viable cell density (VCD) and cell viability values were measured through trypan blue exclusion via Cedex automated cell counters (Roche Applied Science, Indianapolis, Ind.), glucose and lactate values were measured with a ABL-805 (Radiometer Medical, Denmark) blood gas analyzer. Offline pH, dissolved oxygen (DO), and pCO2 measurements were performed with an ABL-805 (Radiometer Medical, Denmark) blood gas analyzer. […]

Cell Line 1 [3] = test: Shake flask fedbatch culture of Cell Line 1, cell culture performance (Example 1)
Experimental: as §1, §2, §3
Cell Line 1 was cultured in shake flasks in fedbatch mode after an abbreviated seed train. Sucrose and tagatose were supplemented into chemically-defined basal and feed media at concentrations of 30, 50, and 70 mM, and compared to an unsupplemented control condition. The viable cell density (VCD), viability, and harvest titer results are shown in FIGS. 3A-3C and FIGS. 5A-5C for the sucrose, and tagatose conditions, respectively. Both sugars facilitated a slight decrease in VCD, with the higher concentrations also supporting the lowest peak VCD. […] As such, the upper threshold of sucrose or tagatose concentration should not be exceeded.

Compound | peak VCD (Cell Line 1 [1]; 50 mM and 70 mM) | increase in harvest titer (Cell Line 1 [1]; 50 mM vs control) [%] | Antibody 1 harvest titer (Cell Line 1 [1]) | viable cell density over time (Cell Line 1 [1]; 1, 10 and 30 mM) | cell viability after process day 10 (Cell Line 1 [1]; 10, 30, 50 and 70 mM) | Osmolality (Cell Line 1 [2]) | cell viability (Cell Line 1 [2]) | lactate (Cell Line 1 [2]) | pCO2 (Cell Line 1 [2]) | viable cell density (Cell Line 1 [2]) | final harvest titer ratio (Cell Line 1 [2]; 50 mM supplement) | Harvest titer (adverse impact) (Cell Line 1 [3]; 30 mM supplement vs control) | Harvest titer (adverse impact) (Cell Line 1 [3]; 50 mM supplement vs control) | Harvest titer (adverse impact) (Cell Line 1 [3]; 70 mM supplement vs control) | cell viability (Cell Line 1 [3]; 70 mM supplement vs control) | viable cell density over time (Cell Line 1 [1]; 1 mM and 10 mM) | decrease in harvest titer (Cell Line 1 [1]; 70 mM vs control) [%] | cell viability after process day 10 (Cell Line 1 [1]; 30, 50 and 70 mM) | peak VCD (Cell Line 1 [1]; 30, 50 and 70 mM) | peak VCD (Cell Line 1 [2]; 50 mM supplement)
OC[C@H]1O[C@@](CO)(O[C@H]2O[C@H](CO)[C@@H](O)[C@H](O)[C@H]2O)[C@@H](O)[C@@H]1O [sucrose] | reduction in peak VCD | 2 | essentially indistinguishable from the control conditions | remained essentially the same | died slower than the control | only slightly higher | no impact | only a nominal increase | no significant difference | no impact | 0.78 | did not adversely impact titer | did not adversely impact titer | reduce the harvest titer significantly | decrease in cell viability that was larger, and earlier in the culture |  |  |  |  | 
O=C(CO)[C@@H](O)[C@@H](O)[C@H](O)CO [tagatose] |  |  | essentially indistinguishable |  |  | higher; also recorded: only slightly higher | remained high throughout the culture | only a nominal increase | no significant difference | much more pronounced effect | 0.90 | did not adversely impact harvest titer | did | did |  | remained similar or higher | 9 | died slower than the control | reduction in peak VCD | 8.5×10^6 cells/mL
